Laboratory results published in patent publication US20250206732A1, “COMPOUNDS AND METHODS FOR THE TARGETED DEGRADATION OF KRAS” (Arvinas Operations, Inc., priority 2022, published 2025).

Target: T1, AsPC-1 HiBiT-KRASG12D (Homo sapiens, UniProt P01116, G12D)
T1 construct: insert the HiBiT tag onto the N-terminus of one or more of the endogenous KRAS alleles; endogenous in cells; host or cells: AsPC-1 (ATCC CRL-1682), CRISPR-Cas9 knock-in clone, one tagged allele
Assay: HiBiT degradation assay (G12D), AsPC-1 HiBiT-KRASG12D cells
Type: cell-based
Conditions: 24 hours treatment; for DC50: HiBiT luminescence; for Dmax: ASPC1, AsPC-1 HiBiT-KRASG12D cells
How it was run: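 AsPC-1 cells carried a CRISPR knock-in of an N-terminal HiBiT tag on endogenous KRAS G12D. After 24 h compound treatment at 37 °C (triplicate), viability was read by alamar blue (4 h, fluorescence, normalized to DMSO). HiBiT-KRAS levels were then measured by Nano-Glo HiBiT lytic luminescence after 45 min at room temperature.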

T1 sequence (P01116 1-188 isoform P01116-2 G12D): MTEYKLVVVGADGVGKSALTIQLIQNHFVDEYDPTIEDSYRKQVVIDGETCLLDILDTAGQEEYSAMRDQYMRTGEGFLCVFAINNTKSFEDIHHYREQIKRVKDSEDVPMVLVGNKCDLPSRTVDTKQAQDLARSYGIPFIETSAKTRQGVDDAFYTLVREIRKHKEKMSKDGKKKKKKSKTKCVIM

Row | Structure (SMILES) | DC50 (AsPC-1 HiBiT-KRASG12D cells) [nM] | Dmax (maximum degradation observed) [%] | AsPC-1 HiBiT-KRASG12D DMax (AsPC-1 HiBiT-KRASG12D cells, maximum degradation observed)
1 | CCc1cccc2cc(O)cc(-c3ncc4c(N5CC6CCC(C5)N6)nc(OCCN5CCN(CC6CN(c7cc([C@@H](C(=O)N8C[C@H](O)C[C@H]8C(=O)N[C@@H](C)c8ccc(-c9scnc9C)cc8)C(C)C)on7)C6)CC5)nc4c3F)c12 [Compound 221, (2S,4R)-1-[(2S)-2-(3-{3-[(4-{2-[(4-{3,8-diazabicyclo[3.2.1]octan-3-yl}-7-(8-ethyl-3-hydroxynaphthalen-1-yl)-8-fluoropyrido[4,3-d]pyrimidin-2-yl)oxy]ethyl}piperazin-1-yl)methyl]azetidin-1-yl}-1,2-oxazol-5-yl)-3-methylbutanoyl]-4-hydroxy-N-[(1S)-1-[4-(4-methyl-1,3-thiazol-5-yl)phenyl]ethyl]pyrrolidine-2-carboxamide] | > 3000 |  | 
2 | CCc1cccc2cccc(-c3ncc4c(N5CC6CCC(C5)N6)nc(OC[C@@H]5CC[C@@H](COC(=O)N6CCN(c7cc([C@H](C(=O)N8C[C@H](O)C[C@H]8C(=O)N[C@@H](C)c8ccc(-c9scnc9C)cc8)C(C)C)on7)[C@H](C)C6)N5C)nc4c3F)c12 [Compound 222, [(2S,5S)-5-{[(4-{3,8-diazabicyclo[3.2.1]octan-3-yl}-7-(8-ethylnaphthalen-1-yl)-8-fluoropyrido[4,3-d]pyrimidin-2-yl)oxy]methyl}-1-methylpyrrolidin-2-yl]methyl (3R)-4-{5-[(2R)-1-[(2S,4R)-4-hydroxy-2-{[(1S)-1-[4-(4-methyl-1,3-thiazol-5-yl)phenyl]ethyl]carbamoyl}pyrrolidin-1-yl]-3-methyl-1-oxobutan-2-yl]-1,2-oxazol-3-yl}-3-methylpiperazine-1-carboxylate] | < 600 | 60 to 80 | 
3 | CCc1cccc2cccc(-c3ncc4c(N5CC6CCC(C5)N6)nc(OC[C@@H]5CC[C@@H](COC(=O)N6CC(Oc7cc([C@H](C(=O)N8C[C@H](O)C[C@H]8C(=O)N[C@@H](C)c8ccc(-c9scnc9C)cc8)C(C)C)on7)C6)N5C)nc4c3F)c12 [Compound 223, [(2S,5S)-5-{[(4-{3,8-diazabicyclo[3.2.1]octan-3-yl}-7-(8-ethylnaphthalen-1-yl)-8-fluoropyrido[4,3-d]pyrimidin-2-yl)oxy]methyl}-1-methylpyrrolidin-2-yl]methyl 3-({5-[(2R)-1-[(2S,4R)-4-hydroxy-2-{[(1S)-1-[4-(4-methyl-1,3-thiazol-5-yl)phenyl]ethyl]carbamoyl}pyrrolidin-1-yl]-3-methyl-1-oxobutan-2-yl]-1,2-oxazol-3-yl}oxy)azetidine-1-carboxylate] | < 600 | 80 to 100 | 
4 | CCc1cccc2cc(O)cc(-c3ncc4c(N5CC6CCC(C5)N6)nc(OCCN5CCC(F)(CN6CCN(c7cc([C@@H](C(=O)N8C[C@H](O)C[C@H]8C(=O)N[C@@H](C)c8ccc(-c9scnc9C)cc8)C(C)C)on7)[C@H](C)C6)CC5)nc4c3F)c12 [Compound 224, (2S,4R)-1-[(2S)-2-{3-[(2R)-4-[(1-{2-[(4-{3,8-diazabicyclo[3.2.1]octan-3-yl}-7-(8-ethyl-3-hydroxynaphthalen-1-yl)-8-fluoropyrido[4,3-d]pyrimidin-2-yl)oxy]ethyl}-4-fluoropiperidin-4-yl)methyl]-2-methylpiperazin-1-yl]-1,2-oxazol-5-yl}-3-methylbutanoyl]-4-hydroxy-N-[(1S)-1-[4-(4-methyl-1,3-thiazol-5-yl)phenyl]ethyl]pyrrolidine-2-carboxamide] | 600 to 1000 | 20 to 60 | 
5 | CCc1cccc2cccc(-c3ncc4c(N5CC6CCC(C5)N6)nc(OC[C@]56CCCN5[C@H](COC(=O)N5CC(Oc7cc([C@H](C(=O)N8C[C@H](O)C[C@H]8C(=O)N[C@@H](C)c8ccc(-c9scnc9C)cc8)C(C)C)on7)C5)CC6)nc4c3F)c12 [Compound 225] | < 600 | 80 to 100 | 
6 | CCc1cccc2cccc(-c3ncc4c(N5CC6CCC(C5)N6C(=O)OC(C)(C)C)nc(OC[C@]56CCCN5[C@H](COC(=O)N5CCN(c7cc([C@H](C(=O)N8C[C@H](O)C[C@H]8C(=O)N[C@@H](C)c8ccc(-c9scnc9C)cc8)C(C)C)on7)[C@H](C)C5)CC6)nc4c3F)c12 [Compound 226, tert-butyl 3-[7-(8-ethyl-1-naphthyl)-8-fluoro-2-[[(3S,8R)-3-[[(3R)-4-[5-[(1R)-1-[(2S,4R)-4-hydroxy-2-[[(1S)-1-[4-(4-methylthiazol-5-yl)phenyl]ethyl]carbamoyl]pyrrolidine-1-carbonyl]-2-methyl-propyl]isoxazol-3-yl]-3-methyl-piperazine-1-carbonyl]oxymethyl]-1,2,3,5,6,7-hexahydropyrrolizin-8-yl]methoxy]pyrido[4,3-d]pyrimidin-4-yl]-3,8-diazabicyclo[3.2.1]octane-8-carboxylate] | < 600 |  | A (80% < A ≤ 100%)
7 | CCc1cccc2cc(O)cc(-c3ncc4c(N5CCCCCC5)nc(OC[C@]56CCCN5[C@H](COC(=O)N5CCN(c7cc([C@H](C(=O)N8C[C@H](O)C[C@H]8C(=O)N[C@@H](C)c8ccc(-c9scnc9C)cc8)C(C)C)on7)[C@H](C)C5)CC6)nc4c3F)c12 [Compound 227, [(3S,8R)-8-[[4-(azepan-1-yl)-7-(8-ethyl-3-hydroxy-1-naphthyl)-8-fluoro-pyrido[4,3-d]pyrimidin-2-yl]oxymethyl]-1,2,3,5,6,7-hexahydropyrrolizin-3-yl]methyl (3R)-4-[5-[(1R)-1-[(2S,4R)-4-hydroxy-2-[[(1S)-1-[4-(4-methylthiazol-5-yl)phenyl]ethyl]carbamoyl]pyrrolidine-1-carbonyl]-2-methyl-propyl]isoxazol-3-yl]-3-methyl-piperazine-1-carboxylate] | < 600 | 80 to 100 | 
8 | CCc1cccc2cc(O)cc(-c3ncc4c(N5CC6CCC(C5)N6)nc(OCCN5CCC[C@@H](CN6CCN(c7cc([C@H](C(=O)N8C[C@H](O)C[C@H]8C(=O)N[C@@H](C)c8ccc(-c9scnc9C)cc8)C(C)C)on7)CC6)C5)nc4c3F)c12 [Compound 228] | < 600 | 80 to 100 | 
9 | CCc1cccc2cc(O)cc(-c3ncc4c(N5CCCCCC5)nc(OC[C@@]56CCCN5[C@H](COC(=O)N5CCN(c7cc([C@H](C(=O)N8C[C@H](O)C[C@H]8C(=O)N[C@@H](C)c8ccc(-c9scnc9C)cc8)C(C)C)on7)[C@H](C)C5)CC6)nc4c3F)c12 [Compound 229, [(3S,8S)-8-[[4-(azepan-1-yl)-7-(8-ethyl-3-hydroxy-1-naphthyl)-8-fluoro-pyrido[4,3-d]pyrimidin-2-yl]oxymethyl]-1,2,3,5,6,7-hexahydropyrrolizin-3-yl]methyl (3R)-4-[5-[(1R)-1-[(2S,4R)-4-hydroxy-2-[[(1S)-1-[4-(4-methylthiazol-5-yl)phenyl]ethyl]carbamoyl]pyrrolidine-1-carbonyl]-2-methyl-propyl]isoxazol-3-yl]-3-methyl-piperazine-1-carboxylate] | < 600 | 80 to 100 | 
10 | CCc1cccc2cc(O)cc(-c3ncc4c(N5CCCCCC5)nc(OC[C@@H]5CC[C@@H](COC(=O)N6CCN(c7cc([C@H](C(=O)N8C[C@H](O)C[C@H]8C(=O)N[C@@H](C)c8ccc(-c9scnc9C)cc8)C(C)C)on7)[C@H](C)C6)N5C)nc4c3F)c12 [Compound 230, [(2S,5S)-5-[[4-(azepan-1-yl)-7-(8-ethyl-3-hydroxy-1-naphthyl)-8-fluoro-pyrido[4,3-d]pyrimidin-2-yl]oxymethyl]-1-methyl-pyrrolidin-2-yl]methyl (3R)-4-[5-[(1R)-1-[(2S,4R)-4-hydroxy-2-[[(1S)-1-[4-(4-methylthiazol-5-yl)phenyl]ethyl]carbamoyl]pyrrolidine-1-carbonyl]-2-methyl-propyl]isoxazol-3-yl]-3-methyl-piperazine-1-carboxylate] | < 600 | 60 to 80 | 
11 | CCc1cccc2cc(O)cc(-c3ncc4c(N5CC6CCC(C5)N6)nc(OCCN5CCC6(CC5)CC(Oc5cc([C@H](C(=O)N7C[C@H](O)C[C@H]7C(=O)N[C@@H](C)c7ccc(-c8scnc8C)cc7)C(C)C)on5)C6)nc4c3F)c12 [Compound 231] | < 600 | 80 to 100 | 
12 | CCc1cccc2cc(O)cc(-c3ncc4c(N5CC6CCC(C5)N6)nc(OCCN5CCC6(CC5)CC(Oc5cc([C@@H](C(=O)N7C[C@H](O)C[C@H]7C(=O)N[C@@H](C)c7ccc(-c8scnc8C)cc7)C(C)C)on5)C6)nc4c3F)c12 [Compound 232] | 1000 to 3000 | 20 to 60 | 
13 | CCc1cccc2cc(O)cc(-c3ncc4c(N5CC6CCC(C5)N6)nc(OCCN5CC(CC6CCN(c7cc([C@H](C(=O)N8C[C@H](O)C[C@H]8C(=O)N[C@@H](C)c8ccc(-c9scnc9C)cc8)C(C)C)on7)CC6)C5)nc4c3F)c12 [Compound 233] | < 600 | 80 to 100 | 
14 | CCc1cccc2cc(O)cc(-c3ncc4c(N5CC6CCC(C5)N6)nc(OCCN5CC(CC6CCN(c7cc([C@@H](C(=O)N8C[C@H](O)C[C@H]8C(=O)N[C@@H](C)c8ccc(-c9scnc9C)cc8)C(C)C)on7)CC6)C5)nc4c3F)c12 [Compound 234, (2S,4R)-1-[(2S)-2-(3-{4-[(1-{2-[(4-{3,8-diazabicyclo[3.2.1]octan-3-yl}-7-(8-ethyl-3-hydroxynaphthalen-1-yl)-8-fluoropyrido[4,3-d]pyrimidin-2-yl)oxy]ethyl}azetidin-3-yl)methyl]piperidin-1-yl}-1,2-oxazol-5-yl)-3-methylbutanoyl]-4-hydroxy-N-[(1S)-1-[4-(4-methyl-1,3-thiazol-5-yl)phenyl]ethyl] pyrrolidine-2-carboxamide] | 1000 to 3000 | 20 to 60 | 
